Values of other authors in US8357388B2, “Drug depot implant designs and methods of implantation” (Warsaw Orthopedic, Inc., priority 2006, dated 2013).

Test system: PGE2 production
Details: in cell culture

COc1ccc2cc(CC(=O)O)ccc2c1 [6-methoxy-2-napthylacetic acid]
PGE2 production and local inflammation: suppress PGE2 production and local inflammation
